How the values were obtained:
Test in all cases: relative viability (nuclei count vs DMSO), 5 days (fraction); higher = more cells survive
[1] = compound: C1=CC=C(C(=C1)C2=CC=C(C=C2)C3=CSC4=C3C(=C(C(=O)N4)C#N)O)O + O=C(c1cc(Cc2n[nH]c(=O)c3ccccc23)ccc1F)N1CCN(C(=O)C2CC2)CC1 [Olaparib] (partner 8 µM)
How it was run: (§1)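 Cells from lung cancer lines were seeded into 1536-well plates and, one day later, dosed by pin tool. Treatments were either a single drug or a fixed dose of an anchor drug with five library-drug doses (not always all listed) in √10 steps. After 5 days, nuclei were stained in a one-step fixation (final 0.05% Triton X-100, 1% formaldehyde, 1 ug/ml Hoechst) and counted on 4× images, and relative viability is the treated-to-vehicle nuclei ratio, as the median of duplicate plates.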

[2] = compound: C1=CC=C(C(=C1)C2=CC=C(C=C2)C3=CSC4=C3C(=C(C(=O)N4)C#N)O)O + O=C(CCCCCCC(=O)Nc1ccccc1)NO [Vorinostat] (partner 1 µM)
How it was run: as §1

[3] = compound: C1=CC=C(C(=C1)C2=CC=C(C=C2)C3=CSC4=C3C(=C(C(=O)N4)C#N)O)O + NC(=O)Nc1cc(-c2cccc(F)c2)sc1C(=O)N[C@H]1CCCNC1 [AZD7762] (partner 0.2 µM)
How it was run: as §1

[4] = compound: CC1=CN2C(=O)C=C(N=C2C(=C1)C(C)NC3=CC=CC=C3)N4CCOCC4 [TGX 221] + O=C(CCCCCCC(=O)Nc1ccccc1)NO [Vorinostat] (partner 1 µM)
How it was run: as §1

Row | Cell Line | relative viability ([1]; first compound 0.08 µM) | relative viability ([1]; first compound 0.253 µM) | relative viability ([1]; first compound 0.8 µM) | relative viability ([1]; first compound 2.53 µM) | relative viability ([1]; first compound 8 µM) | relative viability ([2]; first compound 0.08 µM) | relative viability ([2]; first compound 0.253 µM) | relative viability ([2]; first compound 0.8 µM) | relative viability ([2]; first compound 2.53 µM) | relative viability ([2]; first compound 8 µM) | relative viability ([3]; first compound 0.08 µM) | relative viability ([3]; first compound 0.253 µM) | relative viability ([3]; first compound 0.8 µM) | relative viability ([3]; first compound 2.53 µM) | relative viability ([3]; first compound 8 µM) | relative viability ([4]; first compound 0.08 µM) | relative viability ([4]; first compound 0.253 µM) | relative viability ([4]; first compound 0.8 µM) | relative viability ([4]; first compound 2.53 µM) | relative viability ([4]; first compound 8 µM)
1 | LU99A | 0.255 | 0.225 | 0.248 | 0.262 | 0.266 | 0.501 | 0.478 | 0.702 | 0.49 | 0.425 | 0.331 | 0.293 | 0.335 | 0.391 | 0.275 | 0.431 | 0.514 | 0.588 | 0.356 | 0.529
2 | LXF-289 | 1.1 | 1.24 | 0.958 | 1.01 | 1.02 | 0.902 | 0.831 | 0.833 | 0.82 | 0.907 | 1.06 | 1.09 | 1.15 | 1.2 | 0.925 | 0.77 | 0.757 | 0.732 | 0.714 | 0.771
3 | NCI-H23 | 0.282 | 0.298 | 0.37 | 0.336 | 0.273 | 0.541 | 0.559 | 0.572 | 0.525 | 0.242 | 0.232 | 0.168 | 0.239 | 0.229 | 0.229 | 0.638 | 0.625 | 0.579 | 0.498 | 0.659
4 | NCI-H322M | 0.69 | 0.742 | 0.863 | 0.519 | 0.748 | 0.841 | 0.756 | 0.817 | 0.865 | 0.855 | 0.599 | 0.6 | 0.522 | 0.639 | 0.64 | 0.865 | 0.876 | 0.839 | 0.872 | 0.718
5 | NCI-H358 | 0.4 | 0.654 | 0.531 | 0.562 | 0.587 | 0.641 | 0.647 | 0.666 | 0.839 | 0.484 | 0.486 | 0.542 | 0.532 | 0.605 | 0.488 | 0.746 | 0.663 | 0.71 | 0.668 | 0.602
6 | NCI-H441 | 0.548 | 0.539 | 0.64 | 0.716 | 0.462 | 0.551 | 0.812 | 0.858 | 0.818 | 0.742 | 1.02 | 1.17 | 1.33 | 1.57 | 1.02 | 0.717 | 0.785 | 0.724 | 0.856 | 0.859
7 | NCI-H460 | 0.341 | 0.406 | 0.331 | 0.452 | 0.434 | 0.529 | 0.339 | 0.866 | 0.924 | 0.582 | 0.579 | 0.68 | 0.604 | 0.611 | 0.585 | 0.654 | 0.632 | 0.655 | 0.691 | 0.595
8 | NCI-H522 | 0.567 | 0.674 | 0.778 | 0.56 | 0.645 | 0.929 | 0.898 | 1.06 | 0.921 | 0.86 | 0.802 | 0.871 | 0.869 | 0.898 | 0.772 | 0.976 | 0.822 | 0.883 | 0.831 | 0.826
9 | NCI-H596 | 0.594 | 0.683 | 0.695 | 0.539 | 0.658 | 0.588 | 0.574 | 0.589 | 0.48 | 0.527 | 0.862 | 1.09 | 1.21 | 1.18 | 0.986 | 0.571 | 0.588 | 0.685 | 0.494 | 0.524
10 | NCI-H647 |  | 0.648 | 0.677 | 0.776 | 0.421 |  | 0.947 | 0.58 | 0.637 | 0.461 | 0.294 | 0.337 | 0.276 | 0.39 | 0.301 | 0.466 | 0.442 | 0.457 | 0.547 | 0.665
11 | NCI-H650 | 0.42 | 0.375 | 0.402 | 0.495 | 0.432 | 0.412 | 0.438 | 0.422 | 0.426 | 0.309 | 0.911 | 1.04 | 1.17 | 1.02 | 0.817 | 0.425 | 0.488 | 0.459 | 0.542 | 0.401
12 | NCI-H727 | 0.829 | 0.795 | 0.704 | 0.756 | 0.825 | 1.38 | 1.26 | 1.24 | 1.21 | 1.05 | 0.569 | 0.541 | 0.603 | 0.543 | 0.434 | 1.09 | 1.06 | 1.14 | 1.09 | 1.19
13 | NCI-H838 | 0.522 | 0.963 | 0.811 | 0.784 | 0.773 | 0.749 | 0.691 | 0.775 | 0.704 | 0.744 | 0.914 | 0.923 | 1.02 | 0.875 | 0.839 | 0.7 | 0.67 | 0.635 | 0.668 | 0.589
14 | NCI-H1355 | 0.734 | 0.956 | 0.745 | 0.775 | 0.553 | 0.627 | 0.658 | 0.626 | 0.578 | 0.592 | 0.693 | 0.899 | 0.739 | 0.763 | 0.752 | 0.614 | 0.577 | 0.591 | 0.629 | 0.558
15 | NCI-H1395 |  | 0.469 | 0.479 | 0.458 | 0.446 |  | 0.683 | 0.551 | 0.618 | 0.606 |  | 0.397 | 0.395 | 0.353 | 0.419 | 0.601 | 0.537 | 0.553 | 0.557 | 0.664
16 | NCI-H1437 | 0.616 | 0.74 | 0.668 | 0.641 | 0.606 | 0.788 | 0.934 | 0.889 | 0.874 | 0.603 | 1.1 | 1.27 | 1.12 | 1.22 | 1.15 | 0.888 | 0.922 | 0.858 | 0.852 | 0.779
17 | NCI-H1648 |  | 0.689 | 0.841 | 0.31 | 0.722 |  | 0.319 | 0.876 | 0.593 | 0.391 |  | 0.676 | 0.734 | 0.689 | 0.608 |  | 0.295 | 0.651 | 0.395 | 0.421

Reference: the supplement of paper PMC10307832
